Experiment [1] concerns GalNAc-T2 chimera 1 and 2. As to the kind of experiment: Specific activity of GalNAc-T2 chimera 1 and 2. The experiment is classed as biochemical. Particulars: 1.4 mM, in words. The method, then: Specific activity determinations: GalNAc-T glycosylation reactions against (glyco)peptides 1–3 were performed with 75 mM sodium cacodylate, pH 6.5, 1 mM 2-mercaptoethanol, 10 mM MnCl2, 0.25 mM [^3H]-radiolabeled UDP-GalNAc (~6 × 10^8 DPM/µmole, American Radiolabeled Chemicals Inc.), and 1.4 mM (~1.25 mg/ml) of (glyco)peptide (from 4 mM stock in 1 mM TRIS, pH ~7) and varying concentrations (0.01 to 0.5 µM) of transferase (determined by OD280), giving a final reaction volumes of 20 µl in 100 µl capped Eppendorf tubes. […] Before performing time course experiments, the relative activity of each transferase was determined by trial and error against all three peptides to determine the optimal transferase concentration or incubation time that gave no more than 10% peptide glycosylation against the best substrate. […] Total UDP-[^3H]-GalNAc utilization (transfer to peptide substrate and transfer to water, i.e, hydrolysis) was determined by difference after scintillation counting (Beckman LS5801 scintillation counter) 1/20 of the sample before and after passage over Dowex 1 × 8. The extent of [^3H]-GalNAc transfer to peptide and the extent of hydrolysis was determined by Sephadex G10 gel filtration analysis, typically for the longest reaction time point, as previously described. […]

Another experiment addresses T1, GalNAc-T4 (Homo sapiens, UniProt Q8N4A0).
T1 construct: amino acid residues 36–578 of the human GalNAc-T4; histidine tag (C); made in house; host or cells: Pichia pastoris SMD1168 (pPICZαA, secreted)
As to the kind of experiment: Surface plasmon resonance. Type of experiment: binding. The settings on record: SPR; peptide 0.01–5 mM; 25 °C, pH 7.5, 100 µM UDP, 4 mM MnCl2; in words. The method, then: SPR experiments were performed at 25 °C with a Biacore X-100 apparatus (Biacore AB) in 25 mM Tris buffer, 1 mM DTT, 4 mM MnCl2, 100 µM UDP, 0.01% surfactant P20, pH 7.5 (running buffer) at 25 °C. Flow cells (CM5 sensor chip; Biacore) were activated for 7 min by injecting 140 µl of 50 mM N-hydroxysuccinimide (NHS): 200 mM ethyl-3(3dimethylamino) propylcarbodiimide (EDC). GalNAc-T4 was immobilized on a flow cell 2 by injection of a 100 µg/ml protein solution diluted with 10 mM sodium acetate buffer with a flow rate of 10 µl/min for 7 min followed by an injection of 130 µl ethanolamine to block any remaining activated groups on the surface. The level of immobilization reached was about 8000 RU. Flow cell 1, used as reference, was blocked with ethanolamine at the same conditions of flow cell 2 without immobilization of protein. Affinity experiments were made using a series of different concentrations of peptide 3 in the range of 0.01–5 mM with a flow rate of 30 µl/min during 100 s. Each injection was followed by a 100 s injection of running buffer (dissociation phase). No regeneration steps were performed between injections. Response data were collected at real time and analyzed with the Biacore® X-100 Evaluation software and plotted as response shift versus analyte concentration.
In general terms: In SPR one partner is held on a chip, and binding of the other changes the refractive index at the surface.

The record followed here is article PMC5716993, “The interdomain flexible linker of the polypeptide GalNAc transferases dictates their long-range glycosylation preferences” (Nature Communications, 2017).

“Also recorded” adds a separate entry of the source.

T1 sequence (Q8N4A0 36-578): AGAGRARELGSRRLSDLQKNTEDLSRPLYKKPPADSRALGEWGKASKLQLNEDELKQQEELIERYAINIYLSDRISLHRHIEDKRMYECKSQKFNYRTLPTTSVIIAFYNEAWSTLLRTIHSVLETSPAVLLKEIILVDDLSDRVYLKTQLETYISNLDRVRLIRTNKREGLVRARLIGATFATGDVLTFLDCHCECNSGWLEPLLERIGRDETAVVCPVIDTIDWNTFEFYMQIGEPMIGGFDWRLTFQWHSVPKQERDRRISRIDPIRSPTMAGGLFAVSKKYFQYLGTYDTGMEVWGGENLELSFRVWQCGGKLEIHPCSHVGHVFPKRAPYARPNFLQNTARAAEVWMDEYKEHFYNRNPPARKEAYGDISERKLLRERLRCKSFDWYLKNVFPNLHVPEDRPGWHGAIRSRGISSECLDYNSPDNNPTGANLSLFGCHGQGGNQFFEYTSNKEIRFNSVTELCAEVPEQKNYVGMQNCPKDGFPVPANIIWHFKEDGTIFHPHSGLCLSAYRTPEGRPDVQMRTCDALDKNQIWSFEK

As for “AGAGTTPGPGAGAT*GA [Peptide 2, monoglycopeptide …*GA, T* denotes the Thr-O-GalNAc moiety]”, the “specific activity against monoglycopeptide 2, change” value in experiment [1] is listed as “decrease in the observed specific activity”. As to “GAT*GAGAGAGTTPGPG [Peptide 3, monoglycopeptide GAT*…, T* denotes the Thr-O-GalNAc moiety]”, on GalNAc-T4, the “Kd determinability / binding saturation” value is recorded as “binding saturation could not be achieved; also recorded: binding saturation was not achieved”.
